The results in this text go back to US10590113B2, “6-hydroxy-4-oxo-1,4-dihydropyrimidine-5-carboxamides as APJ agonists” (priority 2016, dated 2020).

What is called EC50 is the concentration giving half of the maximal effect.

For this test, the target named is T1, human APJ receptor (Homo sapiens, UniProt P35414).
T1 construct: expressed in transfected cells; host or cells: HEK293
T1 sequence (P35414 1-380): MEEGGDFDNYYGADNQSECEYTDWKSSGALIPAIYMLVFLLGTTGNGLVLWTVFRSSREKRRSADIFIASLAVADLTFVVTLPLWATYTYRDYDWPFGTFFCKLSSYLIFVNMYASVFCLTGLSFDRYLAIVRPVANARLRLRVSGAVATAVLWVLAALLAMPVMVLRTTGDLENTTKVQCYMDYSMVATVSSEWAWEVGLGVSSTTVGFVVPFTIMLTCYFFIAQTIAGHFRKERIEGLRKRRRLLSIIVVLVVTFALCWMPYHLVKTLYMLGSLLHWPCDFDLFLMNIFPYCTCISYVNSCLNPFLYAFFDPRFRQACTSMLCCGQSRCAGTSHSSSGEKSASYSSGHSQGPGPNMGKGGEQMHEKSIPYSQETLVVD
The test is described as follows: Intracellular cAMP Accumulation Assay (APJ hcAMP, HTRF). The test is classed as cell-based. The settings on record: human APJ, cAMP accumulation; potency range class; read-out: hAPJ cAMP EC50 Potency range. Put shortly:
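Stably transfected HEK293 cells (5,000/well) incubated 30 min at room temperature with serially diluted compound, […] and 2 μM forskolin. cAMP measured by HTRF after 60 min with detection reagents, quantified against a cAMP standard curve; EC50 from variable-slope sigmoidal fit of inhibition of forskolin-stimulated cAMP.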
Turning to `CCc1cccc(CC)c1-n1c(-c2cnn(CC)c2)nc(=O)c(C(=O)N2CCC(c3ccccc3F)C2)c1O` (single isomer, unassigned) [Example 310, 1-(2,6-diethylphenyl)-2-(1-ethyl-1H-pyrazol-4-yl)-5-[3-(2-fluorophenyl)pyrrolidine-1-carbonyl]-6-hydroxy-1,4-dihydropyrimidin-4-one], the EC50 was in the range of 0.01 to 10 nM.

As to `CCc1cccc(CC)c1-n1c(-c2ccn(CC)n2)nc(=O)c(C(=O)N2CCC(c3ncc(Cl)cc3F)C2)c1O` (single isomer, unassigned) [Example 311, 5-[3-(5-chloro-3-fluoropyridin-2-yl)pyrrolidine-1-carbonyl]-1-(2,6-diethylphenyl)-2-(1-ethyl-1H-pyrazol-3-yl)-6-hydroxy-1,4-dihydropyrimidin-4-one], the EC50 was in the range of 0.01 to 10 nM.

Consider `CCc1cccc(CC)c1-n1c(-c2nc(C)cs2)nc(=O)c(C(=O)N2CCC(c3ncc(Cl)cc3F)C2)c1O` (single isomer, unassigned) [Example 312, 5-[3-(5-chloro-3-fluoropyridin-2-yl)pyrrolidine-1-carbonyl]-1-(2,6-diethylphenyl)-6-hydroxy-2-(4-methyl-1,3-thiazol-2-yl)-1,4-dihydropyrimidin-4-one], for which the EC50 lay within 0.01 to 10 nM.

As for `CCc1cccc(CC)c1-n1c(-c2cnn(CC)c2)nc(=O)c(C(=O)N2CCC(c3ncc(Cl)cc3F)C2)c1O` (single isomer, unassigned) [Example 313, 5-[3-(5-chloro-3-fluoropyridin-2-yl)pyrrolidine-1-carbonyl]-1-(2,6-diethylphenyl)-2-(1-ethyl-1H-pyrazol-4-yl)-6-hydroxy-1,4-dihydropyrimidin-4-one], the EC50 is 0.01 to 10 nM.

As to `CCc1cccc(CC)c1-n1c(-c2cnn(CC)c2)nc(=O)c(C(=O)N2CCC(c3ncc(F)cc3F)C2)c1O` (single isomer, unassigned) [Example 315, 1-(2,6-diethylphenyl)-5-[3-(3,5-difluoropyridin-2-yl)pyrrolidine-1-carbonyl]-2-(1-ethyl-1H-pyrazol-4-yl)-6-hydroxy-1,4-dihydropyrimidin-4-one], the EC50 was in the range of 0.01 to 10 nM.

Turning to `CCc1cccc(CC)c1-n1c(-c2ccn(CC(C)C)n2)nc(=O)c(C(=O)N2CCC(c3ccc(F)cn3)C2)c1O` (single isomer, unassigned) [Example 318, 1-(2,6-diethylphenyl)-5-[3-(5-fluoropyridin-2-yl)pyrrolidine-1-carbonyl]-6-hydroxy-2-[1-(2-methylpropyl)-1H-pyrazol-3-yl]-1,4-dihydropyrimidin-4-one], the EC50 was in the range of 0.01 to 10 nM.

In the case of `CCc1cccc(CC)c1-n1c(-c2ccn(C3CC3)n2)nc(=O)c(C(=O)N2CCC(c3ncccc3F)C2)c1O` (single isomer, unassigned) [Example 319, 2-(1-cyclopropyl-1H-pyrazol-3-yl)-1-(2,6-diethylphenyl)-5[3(3-fluoropyridin-2-yl)pyrrolidine-1-carbonyl]-6-hydroxy-1,4-dihydropyrimidin-4-one], the EC50 lay within 0.01 to 10 nM.

For `CCc1cccc(CC)c1-n1c(-c2ccn(CC(C)C)n2)nc(=O)c(C(=O)N2CCC(c3ncc(F)cc3F)C2)c1O` (single isomer, unassigned) [Example 320, 1-(2,6-diethylphenyl)-5-[3-(3,5-difluoropyridin-2-yl)pyrrolidine-1-carbonyl]-6-hydroxy-2-[1-(2-methylpropyl)-1H-pyrazol-3-yl]-1,4-dihydropyrimidin-4-one], the EC50 was 10 to 100 nM.

As to `CC[C@@H](c1ccccc1)n1c(-c2nc(C)cs2)nc(=O)c(C(=O)N2CCC(c3ncc(F)cc3F)C2)c1O` (single isomer, unassigned) [Example 321], the EC50 fell in the range of 0.01 to 10 nM.

`CC[C@@H](c1ccccc1)n1c(-c2nc(C)cs2)nc(=O)c(C(=O)N2CCC(c3ccc(F)cn3)C2)c1O` (single isomer, unassigned) [Example 322]: the EC50 fell in the range of 0.01 to 10 nM.

Take `CC[C@@H](c1ccccc1)n1c(-c2nc(C)cs2)nc(=O)c(C(=O)N2CCC(c3ncc(Cl)cc3F)C2)c1O` (single isomer, unassigned) [Example 323]: the EC50 fell in the range of 0.01 to 10 nM.
